According to patent US20230303575A1, “FGFR AND MUTATION INHIBITOR THEREOF, PREPARATION METHOD THEREFOR AND USE THEREOF” (Abbisko Therapeutics Co., Ltd., priority 2020, published 2023):

Key:
FGFR2 V564F = biological target: T1, FGFR2 V564F (Homo sapiens, UniProt P21802, V564F); assay: Cell proliferation assay for Tel-FGFR2 V564F in BaF3; format: cell-based; settings: BaF3 cells expressing FGFR2 V564F fusion, 48 hrs, CellTiter Glo
T1 construct: P41212 (Transcription factor ETV6)
Experimental: By transfection, cell strains of the intracellular kinase domain fusion protein of TEL-FGFR2 WT or the intracellular domain fusion proteins containing FGFR2 V564, V564F, V564L, N549K and K659M mutations were stably expressed in Baf cells. On day 1, the cell suspension was plated into a 96-well plate containing growth medium (DMEM containing 1% Glutamax, 10% FBS and 1% Pen/Strep) at 2000-4000 cells/90 μL/per well, and then the mixture was incubated overnight at 37° C. and 5% CO2. On day 2, 10 μL of growth medium containing a 10-fold stock solution of test compound was added to the cell culture (9 dose points, 3× serial dilution, starting from 1 μM, finally 0.3% DMSO). After incubation at 37° C. and 5% CO2 for 48 hrs, 50 μL of CellTiter Glo (CTG) reagent was added to the cell-containing 96-well plate on day 3, and the plate was then incubated at room temperature for 10 min. Then relative light units (RLUs) were measured on a microplate reader with a luminescence detection module. RLU values were normalized to % survival, and concentration-response curves were plotted using Prism to calculate IC50 (nM).

FGFR3 V555M = biological target: T2, FGFR3 V555M (Homo sapiens, UniProt P22607, V555M); assay: Cell proliferation assay for FGFR3 V555M in BaF3; format: cell-based; settings: BaF3 cells expressing FGFR3 V555M fusion, 48 hrs, CellTiter Glo
T2 construct: P41212 (Transcription factor ETV6)
T2 sequence (P22607 472-761 V555M limits assumed): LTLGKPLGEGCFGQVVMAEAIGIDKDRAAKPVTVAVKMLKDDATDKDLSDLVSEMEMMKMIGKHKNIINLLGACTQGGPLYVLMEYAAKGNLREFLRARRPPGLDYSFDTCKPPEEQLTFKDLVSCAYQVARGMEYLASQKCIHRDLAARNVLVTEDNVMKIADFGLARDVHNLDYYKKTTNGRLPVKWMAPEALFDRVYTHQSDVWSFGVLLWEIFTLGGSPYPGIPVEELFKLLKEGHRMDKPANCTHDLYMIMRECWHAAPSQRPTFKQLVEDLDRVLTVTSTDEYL
Experimental: For the compounds of the Examples of the present invention, cell strains of TEL-FGFR3 WT intracellular kinase domain fusion protein or intracellular domain fusion protein containing FGFR3 V555M or FGFR3 N540K mutation were stably expressed in Baf cells by transfection and were used to determine the cell proliferation effect of BaF3-Tel-FGFR3 WT. FGFR3 V555M or FGFR3 N540K. The specific test process was as follows: • 1) The cell suspension was plated into a 96-well plate containing growth medium (DMEM containing 1% Glutamax, 10% FBS and 1% Pen/Strep) at 2000-4000 cells/90 μL/per well, and then the mixture was incubated overnight at 37° C. and 5% CO2. • 2) 10 μL of growth medium containing a 10-fold stock solution of test compound was added to the cell culture (9 dose points, 3× serial dilution, starting from 1 μM, finally 0.3% DMSO). • 3) The mixture was incubated at 37° C. and 5% CO2 for 48 hrs. • 4) 50 μL of CellTiter Glo (CTG) reagent was added to the cell-containing 96-well plate, and the plate was then incubated at room temperature for 10 min. • 5) Relative light units (RLUs) were measured on a microplate reader with a luminescence detection module. RLU values were normalized to % survival, and concentration-response curves were plotted using Prism to calculate IC50 (nM).

T1 sequence (P21802 481-770 V564F limits assumed): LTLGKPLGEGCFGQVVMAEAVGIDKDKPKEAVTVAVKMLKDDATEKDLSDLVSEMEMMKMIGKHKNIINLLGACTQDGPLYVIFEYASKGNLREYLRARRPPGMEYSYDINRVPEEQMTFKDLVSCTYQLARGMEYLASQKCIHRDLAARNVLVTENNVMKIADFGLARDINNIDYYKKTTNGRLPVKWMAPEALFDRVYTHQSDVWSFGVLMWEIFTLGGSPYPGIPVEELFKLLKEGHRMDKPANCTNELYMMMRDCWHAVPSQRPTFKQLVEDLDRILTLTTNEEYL

With C=CC(=O)N1CC[C@H](n2cc(C#Cc3cc4nc(C(F)(F)F)oc4cc3F)c3c(N)ncnc32)C1 [Example 72, (S)-1-(3-(4-amino-5-((6-fluoro-2-(trifluoromethyl)benzo[d]oxazol-5-yl)ethynyl)-7H-pyrrolo[2,3-d]pyrimidin-7-yl)pyrrolidin-1-yl) prop-2-en-1-one] the IC50 (FGFR2 V564F) was 5 to 50 nM and the IC50 (FGFR3 V555M) was 50 to 500 nM.

C=CC(=O)N1CCC(c2cc(C#Cc3ccc4sc(C)nc4c3)c3c(N)ncnn23)C1 (stereo not drawn) [Example 70, 1-(3-(4-amino-5-((2-methyl-benzo[d]thiazol-5-yl)ethynyl)pyrrolo[2,1-f][1,2,4]triazin-7-yl)pyrrolidin-1-yl) prop-2-en-1-one] was tested, and the IC50 (FGFR2 V564F) was 0.5 to 5 nM.

With C=CC(=O)N1CC[C@H](n2nc(C#Cc3cc4nc(C5CC5)oc4cc3F)c3c(N)ncnc32)C1 [Example 35, (S)-1-(3-(4-amino-3-((2-cyclopropyl-6-fluorobenzo [d]oxazol-5-yl)ethynyl)-1H-pyrazolo[3,4-d]pyrimidin-1-yl)pyrrolidin-1-yl) prop-2-en-1-one] the IC50 (FGFR2 V564F) was no more than 0.5 nM and the IC50 (FGFR3 V555M) was 0.5 to 5 nM.

Molecule C=CC(=O)N1CC[C@H](n2nc(C#Cc3cc4nc(NC)oc4cc3F)c3c(N)ncnc32)C1 [Example 29, (S)-1-(3-(4-amino-3-((6-fluoro-2-(methylamino)benzo[d]oxazol-5-yl)ethynyl)-1H-pyrazolo[3,4-d]pyrimidin-1-yl)pyrrolidin-1-yl) prop-2-en-1-one] has an IC50 (FGFR2 V564F) of 0.5 to 5 nM and an IC50 (FGFR3 V555M) of 5 to 50 nM.

C=CC(=O)N1CC[C@H](n2nc(C#Cc3cc4nc(C5CCC5)oc4cc3F)c3c(N)ncnc32)C1 [Example 38, (S)-1-(3-(4-amino-3-((2-cyclobutyl-6-fluorobenzo [d]oxazol-5-yl)ethynyl)-1 H-pyrazolo[3,4-d]pyrimidin-1-yl)pyrrolidin-1-yl) prop-2-en-1-one] was tested, and the IC50 (FGFR2 V564F) was 0.5 to 5 nM and the IC50 (FGFR3 V555M) was 5 to 50 nM.

With C=CC(=O)N1CC[C@H](n2nc(C#Cc3ccc4oc(C5(C)CC5)nc4c3)c3c(N)ncnc32)C1 [Example 39, (S)-1-(3-(4-amino-3-((2-(1-methylcyclopropyl)benzo [d]oxazol-5-yl)ethynyl)-1H-pyrazolo[3,4-d]pyrimidin-1-yl)pyrrolidin-1-yl) prop-2-en-1-one] the IC50 (FGFR2 V564F) was 0.5 to 5 nM.

Work on C=CC(=O)N1CC[C@H](n2cc(C#Cc3ccc4oc(C(F)(F)F)nc4c3)c3c(N)ncnc32)C1 [Example 76, (S)-1-(3-(4-amino-5-((2-(trifluoromethyl)benzo[d]oxazol-5-yl)ethynyl)-7H-pyrrolo[2,3-d]pyrimidin-7-yl)pyrrolidin-1-yl)prop-2-en-1-one] yielded an IC50 (FGFR3 V555M) of 50 to 500 nM.

With C=CC(=O)N1CC[C@H](n2cc(C#Cc3ccc4oc(C(C)C)nc4c3)c3c(N)ncnc32)C1 [Example 4, (S)-1-(3-(4-amino-5-((2-isopropylbenzo[d]oxazol-5-yl)ethynyl)-7H-pyrrolo[2,3-d]pyrimidin-7-yl)pyrrolidin-1-yl)prop-2-en-1-one] the IC50 (FGFR2 V564F) was 0.5 to 5 nM.

C=CC(=O)N1CC[C@H](n2cc(C#Cc3ccc4oc(C5CCC5)nc4c3)c3c(N)ncnc32)C1 [Example 5, (S)-1-(3-(4-amino-5-((2-cyclobutylbenzo[d]oxazol-5-yl)ethynyl)-7H-pyrrolo [2,3-d]pyrimidin-7-yl)pyrrolidin-1-yl)prop-2-en-1-one] showed an IC50 (FGFR2 V564F) of 0.5 to 5 nM.

C=CC(=O)N1CC[C@H](n2nc(C#Cc3cc4nc(C(F)F)sc4cc3F)c3c(N)ncnc32)C1 [Example 60, (S)-1-(3-(4-amino-3-((2-(difluoromethyl)-6-fluoro-benzo[d]thiazol-5-yl)ethynyl)-1H-pyrazolo[3,4-d]pyrimidin-1-yl)pyrrolidin-1-yl)prop-2-en-1-one] gave an IC50 (FGFR2 V564F) of 0.5 to 5 nM.

With C=CC(=O)N1CC[C@H](n2cc(C#Cc3ccc4sc(C5CC5)nc4c3)c3c(N)ncnc32)C1 [Example 43, (S)-1-(3-(4-amino-5-((2-cyclopropylbenzo[d]thiazol-5-yl)ethynyl)-7H-pyrrolo [2,3-d]pyrimidin-7-yl)pyrrolidin-1-yl)prop-2-en-1-one] the IC50 (FGFR2 V564F) was 0.5 to 5 nM.
